For orientation: inhibition means how much of the control response was suppressed. In general, IC50 refers to the point on the concentration scale where inhibition reaches its midpoint.

Data set [1] in a line: Superoxide radical scavenging activity (non-enzymatic, PMS/NADH, NBT method). Particulars: 100 μM. The text has this: Superoxide anion radical is an active form of oxygen, and it is the product of the one-electron reduction of […] oxygen. Herein, superoxide radicals were formed by mixing phenazine methosulfate (PMS) with NADH and air-oxygen. The production of radicals was estimated with the nitroblue-tetrazolium method (NBT). From the tested pyrroles, Compounds 2i and 2iii were equipotent (57%) scavengers. […] In contrast, the dipole moment appeared to be important. The values of the dipole, as calculated by the program Spartan v.5.1.3.
The superoxide anion radicals were produced non-enzymatically by mixing phenazine methosulfate (PMS) with NADH and air-oxygen. The production of superoxide radicals was estimated with the nitroblue-tetrazolium (NBT) method with 3 μΜ PMS, 78 μΜ NADH and 25 μΜ NBT in 19 μΜ phosphate buffer pH 7.4. The absorbance was measured at 560 nm at room temperature. The tested compounds were added in the mixture 2 min before the addition of NADH [52].

Data set [2] can be described thus: Interaction with the stable free radical DPPH (reducing activity). Particulars: 1000 μM compound, DPPH 50 μM. Here is the method: 2,2-Diphenyl-1-picrylhydrazyl (DPPH) is a lipophilic, free, stable radical, which absorbs at 517 nm (violet color). Upon reduction, decolorization is observed that is stoichiometric to the number of received electrons and is representative of the antioxidant ability of compounds. […] This interaction, which indicates their radical scavenging ability in an iron-free system, was measured at 100 and 1000 μM after 20 and 60 min, whereas the final concentration of DPPH was stable at 50 μΜ.
[…] The absorbance was measured at 517 nm after 20 and 60 min at room temperature.
A general note: The DPPH test is a chemical assay of radical scavenging.

Data set [3] addresses COX-1 (Homo sapiens, UniProt P23219). The data set is described as follows: Inhibition of COX-1 (preliminary results). Type of data set: biochemical. The text has this: More experiments are in progress to delineate accurately the inhibition profile.
Data set [4] has as its target T1, COX-2 (Homo sapiens, UniProt P35354).
T1 sequence (P35354 18-604): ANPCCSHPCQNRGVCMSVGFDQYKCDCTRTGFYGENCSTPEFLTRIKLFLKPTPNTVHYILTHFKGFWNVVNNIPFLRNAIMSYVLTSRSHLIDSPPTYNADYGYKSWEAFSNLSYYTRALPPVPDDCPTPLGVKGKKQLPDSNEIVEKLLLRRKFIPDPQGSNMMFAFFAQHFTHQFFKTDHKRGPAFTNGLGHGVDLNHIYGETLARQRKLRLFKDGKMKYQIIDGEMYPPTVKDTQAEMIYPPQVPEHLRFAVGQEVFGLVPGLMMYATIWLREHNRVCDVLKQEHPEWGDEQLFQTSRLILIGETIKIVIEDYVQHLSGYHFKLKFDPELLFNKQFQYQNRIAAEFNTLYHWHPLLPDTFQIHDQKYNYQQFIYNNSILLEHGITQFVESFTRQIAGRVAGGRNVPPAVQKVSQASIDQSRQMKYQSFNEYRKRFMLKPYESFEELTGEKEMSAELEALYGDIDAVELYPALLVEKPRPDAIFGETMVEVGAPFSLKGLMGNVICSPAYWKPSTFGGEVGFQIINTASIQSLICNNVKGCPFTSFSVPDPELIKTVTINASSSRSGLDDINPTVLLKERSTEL
In words: Inhibition of cycloxygenase-2 (colorimetric TMPD assay). Particulars: for COX-2 % inhibition: 100 μM; for inhibition at 100 µM: read-out: COX-2 % inhibition.
Experimental: The inhibition of COX-2, as a peroxidase, was determined by a colorimetric assay with the oxidation of N,N,N′,N′-tetramethyl-p-phenylenediamine (TMPD).
COX-2 inhibitory activity was determined by using arachidonic acid (AA) as a substrate in buffer (0.1 M Tris pH 8.5) and TMPD as a co-substrate.

Data set [5] is described as follows: Lipophilicity as RM values by reverse-phase thin layer chromatography (RPTLC). The format is physicochemical. Particulars: methanol/water 75/25 v/v with ammonia drops. The text has this: Since lipophilicity is a significant physicochemical property determining the absorption, distribution, metabolism and excretion properties (ADME) of drugs, we attempted to determine experimentally the lipophilicity as RM values with reverse-phase thin layer chromatography (RPTLC). Lipophilicity was also theoretically calculated as Clog P values. According to the calculated Clog P values, the most lipophilic compounds were 2iii (6.37) and 2v (6.04). However, this observation was not supported by the RM values, since Compound 2iii presented very low lipophilicity (−0.061). Furthermore, the lipophilicity of Compound 2v could not be determined experimentally under the reported conditions. Attempts to correlate Clog P and RM values failed. From our results (Table 2), it can be concluded that RM values could not be used as a successful relative measure of the overall lipophilic/hydrophilic properties of these molecules. Tentatively, this can be attributed to the different nature of the hydrophilic and lipophilic phases in the two systems. Clog P refers to n-octanol/water, whereas RM in this case refers to methanol/water. Moreover, it is likely that pyrrole derivatives form hydrogen bonds within the hydrophilic phase.
Reverse-phase thin layer chromatography (RPTLC) was used for the determination of RM values. Silica gel plates were saturated with 5% v/v liquid paraffin in petroleum ether, and the mobile phase was methanol/water (75/25 v/v) with the addition of ammonia drops. Spots were detected under UV light. RM values were determined by the corresponding Rf values (from five measurements for each compound) using the equation [43]: RM = log[(1/Rf) − 1](1)

Data set [6] in a line: Inhibition of heme-dependent lipid peroxidation of linoleic acid (TBA method). As to conditions: pH 7.4, 37 °C; read-out: LP IC50 (inhibition of heme-dependent lipid peroxidation of linoleic acid). Here is the method: The anti-lipid peroxidation activity was determined through the inhibition of heme-dependent lipid peroxidation. The peroxidation of sodium linoleate is induced from a mixture of heme and hydrogen peroxide, which produces free radicals from the side chains of amino acids. The assay is performed at pH 7.4 with a phosphate buffer, and the products of peroxidation are identified with the thiobarbituric acid method (TBA). In particular, malonic dialdehyde, a final product of lipid peroxidation, reacts with TBA and forms a colored product, whose absorbance is measured at 535 nm. […] Compounds 2ii and 2vi with low Clog P values are weak inhibitors of lipid peroxidation. It seems that the increase of volume of Ar^1, measured as molar refractivity MR (Ar^1), enhances IC50 values and reduces the inhibitory activity (2i and 2iii; and 2ii, 2iv and 2vi). For derivatives 2iv and 2v, the presence of an electron-acceptor, e.g., a chloro-substituent on the phenyl ring (Ar^2), diminishes the anti-lipid peroxidation activity.
Firstly, 0.4 mL of heme (50 μΜ), 0.25 mL of sodium linoleate (400 μΜ), 0.1 mL of the solutions of the tested compounds (concentrations varying from 10–100 μΜ in DMSO) and 0.25 mL of H2O2 (500 μΜ) were incubated for 10 min in 37 °C in a phosphate buffer (KH2PO4–KOH 50 mM, pH 7.4). The peroxidation products were identified with the reaction of thiobarbituric acid, by adding successively 0.5 mL of 40% trichloroacetic acid (TCA) and 0.5 mL of 2% of thiobarbituric acid (TBA). The addition was followed by stirring and heating at 90 °C for 20 min, and then, 1 mL of acetic acid and 1 mL of chloroform were added and the absorbance measured at 535 nm. IC50 values were determined.

Entries after “also recorded” stand apart in the source; their conditions may differ.

Chain of COX-1 (P23219 24-599): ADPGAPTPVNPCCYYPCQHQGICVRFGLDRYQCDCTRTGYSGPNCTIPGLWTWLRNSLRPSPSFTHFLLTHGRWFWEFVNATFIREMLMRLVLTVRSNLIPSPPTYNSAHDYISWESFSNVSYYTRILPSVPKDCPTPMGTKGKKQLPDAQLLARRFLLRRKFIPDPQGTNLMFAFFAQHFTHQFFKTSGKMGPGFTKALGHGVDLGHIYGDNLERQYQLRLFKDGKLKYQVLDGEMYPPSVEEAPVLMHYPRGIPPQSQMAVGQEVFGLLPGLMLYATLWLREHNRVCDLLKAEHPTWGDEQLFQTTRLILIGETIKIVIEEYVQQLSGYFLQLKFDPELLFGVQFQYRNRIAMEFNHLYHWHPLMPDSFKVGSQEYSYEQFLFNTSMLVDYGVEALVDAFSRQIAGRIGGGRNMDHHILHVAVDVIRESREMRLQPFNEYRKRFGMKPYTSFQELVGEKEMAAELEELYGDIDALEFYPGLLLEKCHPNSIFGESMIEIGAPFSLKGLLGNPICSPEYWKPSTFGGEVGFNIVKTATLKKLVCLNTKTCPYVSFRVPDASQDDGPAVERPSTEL

Regarding `O=C(c1cccs1)c1c[nH]cc1-c1ccc(OCc2ccc(Br)cc2)cc1` [Compound 2iii, (4-{4-[(4-Bromobenzyl)oxy]phenyl}-1H-pyrrol-3-yl)(thien-2-yl)methanone], the “O2^•− % superoxide radical scavenging activity” value in data set [1] is reported as 57%. For the same compound, the “RA % (interaction with DPPH)” value in data set [2] (20 min) came out at 4%; in data set [2] (60 min), 5%. In data set [3], the inhibition at 100 µM worked out at 75%. Moreover, the COX-2 % inhibition result in data set [4] is “inactive; also recorded: without any activity”. Further, the RM in data set [5] was −0.061. In addition, the IC50 in data set [6] is 100 µM.

For `O=C(c1cccs1)c1c[nH]cc1-c1cccc(Oc2ccccc2)c1` [Compound 2i, [4-(3-Phenoxyphenyl)-1H-pyrrol-3-yl](thien-2-yl)methanone], the “O2^•− % superoxide radical scavenging activity” value in data set [1] is reported as 57%. For the same compound, the inhibition at 100 µM in data set [4] amounted to 67.2%. The RM in data set [5] came to 0.091. Further, the concentration for half-maximal inhibition (IC50) in data set [6] is 40 µM.

On to `O=C(c1ccc(Cl)cc1)c1c[nH]cc1-c1cccc2ccccc12` [Compound 2v, (4-Chlorophenyl)[4-(naphth-1-yl)-1H-pyrrol-3-yl]methanone], for which the “O2^•− % superoxide radical scavenging activity” value in data set [1] was “inactive”. Besides, the inhibition at 100 µM in data set [3] amounted to 75%; in data set [4] it was 81%. Moreover, in data set [6], the IC50 came to 150 µM.

With `O=C(c1ccccc1)c1c[nH]cc1-c1cccc2ccccc12` [Compound 2iv, [4-(Naphth-1-yl)-1H-pyrrol-3-yl](phenyl)methanone], in data set [1], the “O2^•− % superoxide radical scavenging activity” value was found to be 76%. In addition, the entries for the “RA % (interaction with DPPH)” value in data set [2] (20 min) and in data set [2] (60 min) were 8% and 10%, respectively. Moreover, the COX-2 % inhibition result in data set [4] is “inactive”. Moreover, the RM in data set [5] is given as −0.149. Besides, the 50% inhibitory concentration (IC50) in data set [6] was determined as 72 µM.

The record behind these values is PMC6332026, “Synthesis and Pharmacochemistry of New Pleiotropic Pyrrolyl Derivatives” (Molecules, 2015).
